# Columns and labels:
# [1] = molecular target: N-alpha acyl glutamine aminoacylase (Corynebacterium striatum, UniProt Q8GGD4); test: Malodour generated on cloth with enzyme and HMHA sweat precursor, assessed by a panel; format: biochemical, Corynebacteria; conditions: 0.1% compound in respective test products (un-fragranced base, fragranced base, Febreze) on polycotton cloth with HMHA precursor and enzyme, 37° C. 30 min; panel scale 0-10; vs untreated control
# From the text: The objective of the study is to measure the effectiveness of malodour-counteracting compounds for use in the present invention at reducing malodour generated on cloth in the presence of the enzyme N-alpha acyl glutamine aminoacylase, and the sweat precursor for the malodorous fatty acid 3-methyl-3-hydroxy-hexanoic acid (HMHA). The aim is to achieve a significant reduction in malodour on cloth against: • a) an untreated fabric • b) a marketed fabric freshener, namely Spring & Renewal Febreze®.
# 140 μg of odourless precursor for HMHA (equivalent to 15 minutes of physical exercise) is dissolved in 125 μl of 12% ethanol/88% water and applied to 12.5 cm2 polycotton (40/60 mix) cloth in a 30 ml Beatson jar.
# The cloth was allowed to dry completely in a 40° C. oven before checking for residual malodour.
# Thereafter, the cloth was moistened with 125 μl of a solution containing 0.33 μg/ml of the enzyme N-α-acyl glutamine aminoacylase in 50 mM phosphate buffer pH 6 and the treated cloth was allowed to incubate in a glass jar at 37° C. for 30 minutes.
# Thereafter a few drops of a 10% concentration of HCL were added to protonate the acids.
# Malodour was assessed by a panel on a scale of 0 (nothing)-10 (very strong)
# Malodour precursor was applied to cloth as described above and the cloth allowed to dry in an oven at 40° C.
# 125 μl of each of the following solutions was applied on to polycotton cloth already containing the precursor and allowed to dry in a 40° C. oven:
# 0.1% of the Compounds (I), (II), and (III) defined above (hereinafter referred to generally as “compound”), dissolved in an un-fragranced in-house fabric refresher base 0.1% of each compound dissolved in a fragranced fabric refresher base fragranced with a 0.05% of a proprietary fragrance having a floral-green-aldehyde odour (hereinafter “fragrance”).
# 0.1% of each inhibitor dissolved in a Febreze(r) Market product (Spring & Renewal) […]
# [2] = Solubility in a cyclodextrin-containing fabric refreshener; format: physicochemical; conditions: at 0.1%
# N-alpha acyl glutamine aminoacylase, sequence (Q8GGD4 whole entry): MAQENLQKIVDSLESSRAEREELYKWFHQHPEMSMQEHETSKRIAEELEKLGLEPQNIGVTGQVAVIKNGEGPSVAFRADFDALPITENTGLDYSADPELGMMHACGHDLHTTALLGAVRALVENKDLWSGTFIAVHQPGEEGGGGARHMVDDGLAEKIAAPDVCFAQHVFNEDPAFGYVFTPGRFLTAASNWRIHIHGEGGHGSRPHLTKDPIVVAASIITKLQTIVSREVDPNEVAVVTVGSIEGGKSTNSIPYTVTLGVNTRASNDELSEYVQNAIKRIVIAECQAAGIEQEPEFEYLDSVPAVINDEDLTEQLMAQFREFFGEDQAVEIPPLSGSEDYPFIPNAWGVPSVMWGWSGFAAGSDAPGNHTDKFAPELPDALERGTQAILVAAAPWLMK
Compound,malodour reduction compared with the control [1],solubility in a cyclodextrin-containing fabric refreshener [2]
CCCCC(CC)CNC(=O)N[C@@H](CCC(N)=O)C(=O)O (stereo partly drawn) [Compound III],clear and significant malodour reduction,soluble
NC(=O)CC[C@H](NC(=O)OCc1ccccc1)C(=O)O [Compound I],clear and significant malodour reduction,soluble
CC(CCOC(=O)NC(CCC(N)=O)C(=O)O)CCc1ccccc1 (stereo not drawn) [Compound II],clear and significant malodour reduction,soluble

# Reference: US20150004126A9, “COMPOSITIONS” (GIVAUDAN S.A., priority 2011, published 2015)
